# Experimental data from EP3732162B1, “NITROALKENE NON STEROIDAL ANTI-INFLAMMATORY DRUGS (NA-NSAIDS) AND METHODS OF TREATING INFLAMMATION RELATED CONDITIONS” (Institut Pasteur De Montevideo, priority 2017, dated 2019).
# Assays:
# [1] = Adduct formation with beta mercaptoethanol (BME), followed spectrophotometrically
# From the text: While not wishing to be bound by theory, during inflammation, reversible reactions with nucleophilic molecules such as NF-κB and the inflammasomes have shown to modify inflammatory response. One method to identify reactions with nucleophilic targets at physiological pH is by screening with beta mercaptoethanol ("BME"). […] Thus, the nitroalkene NSAIDs within the scope of the present invention react with nucleophilic molecules such as NF-κB and the inflammasomes to modify inflammatory response.
# NF-κB = assay: IL-1β secretion by ELISA in PMA-differentiated macrophages, compound given together with LPS (1st signal); type: cell-based
# Procedure: (§1) In order to compare benzoic acid (BA) and nitroalkene benzoic acid (BANA) over NF-κB and inflammasome function in macrophages, TUP-1 cells were differentiated into macrophages with PMA (200 nM, 48 h). Cells were then stimulated with LPS (250ng/mL) and with ATP (5mM, 45 minutes). Together with LPS (1st signal, FIG. 6) or ATP (2nd signal, FIG. 7), cells were treated with Benzoic acid (30 µM) or BANA (30 µM). Supernatants were collected and IL-1β secretion was measured by ELISA. […] Thus, BANA inhibits both the generation of the inflammasome, and inhibits the inflammasome itself.
# (§2) Further exemplary studies were performed with Flufenamate (FluFE) and nitroalkene flufenamate (FluFENA). In order to study the effect of Flufenamate (FluFE) and FluFENA over NF-κB and inflammasome function in macrophages, THP-1 cells were differentiated into macrophages with PMA (200 nM, 48 h). Cells were stimulated with LPS (250ng/mL) and then with ATP (5mM, 45 minutes). Together with LPS (1st signal, FIG. 8) or ATP (2nd signal, FIG. 9), cells were treated with FluFE (5 µM) or FluFENA (5 µM). Supernatant were collected and IL-1β secretion was measured by ELISA. Cell viability was assessed by the MTT assay.
# (§3) To study the effect of ibuprofen and IBUNA over NF-xB and inflammasome function in macrophages, TUP-1 cells were differentiated into macrophages with PMA (200 nM, 48 h). Cells were stimulated with LPS (250ng/mL) and then with ATP (5mM, 45 minutes). Together with LPS (1st signal, FIG. 10) or ATP (2nd signal, FIG. 11), cells were treated with Ibuprofen (20 µM) or IBUNA (20 µM). Supernatant were collected and IL-1β secretion was measured by ELISA.
# inflammasome = assay: IL-1β secretion by ELISA in PMA-differentiated macrophages, compound given together with ATP (2nd signal); type: cell-based
# Procedure: as §1, §2, §3
# IL-1β = assay: In vivo model of peritonitis (LPS-induced inflammatory response), IL-1β by ELISA; details: mice, 50 mg/kg IP 1 hour before LPS 10 mg/kg IP for 2 hours; as opposed to BA; FIG. 12
# Procedure: Mice were treated with BANA, Benzoic Acid (50 mg/kg, IP) or the vehicle (100 mM Phosphate buffer 10% DMSO) for 1 hour. Then were injected with LPS (10 mg/kg, IP) or PBS for 2 hours. Mice were collected for peritoneal wash and blood samples were extracted. The peritoneal wash and plasma were stored to measure IL-1β by ELISA. The values are show as mean ± SD from three mice per condition and we have used the statistic test one-way ANOVA with Bonferroni.
smiles,measurement,setting,value
"O=[N+]([O-])/C=C/c1ccc(O)cc1 [PheNA, (E)-4-(2-nitrovinyl)phenol]",nitroalkene NSAID adduction with BME (absorbance),"[1]; 50 µM PheNA with 500 µM BME, 100 mM phosphate buffer pH 7.4, FIG. 5",absorbance increase
"O=C(O)c1ccc(/C=C/[N+](=O)[O-])cc1 [BANA, (E)-4-(2-nitrovinyl)benzoic acid]",nitroalkene NSAID adduction with BME (absorbance),"[1]; 10 µM BANA with 30 µM BME, 100 mM phosphate buffer pH 7.4, FIG. 4",absorbance increase
same,IL-1β secretion,"NF-κB; TUP-1 cells differentiated with PMA, 30 µM together with LPS 250ng/mL (1st signal), then ATP 5mM 45 minutes, vs Benzoic acid 30 µM, FIG. 6",inhibition of IL-1β secretion
same,IL-1β secretion,"inflammasome; TUP-1 cells differentiated with PMA, LPS 250ng/mL, then 30 µM together with ATP 5mM 45 minutes (2nd signal), vs Benzoic acid 30 µM, FIG. 7",inhibition of IL-1β secretion
same,level of pro-inflammatory cytokine IL-1β secretion in blood plasma,IL-1β,marked decrease
same,level of pro-inflammatory cytokine IL-1β secretion in peritoneal wash,IL-1β,marked decrease
"CC(C)Cc1ccc(C(C)C(=O)O)cc1/C=C/[N+](=O)[O-] (stereo not shown) [IBUNA, (E)-2-(4-isobutyl-3-(2-nitrovinyl)phenyl)propanoic acid]",nitroalkene NSAID adduction with BME (absorbance),"[1]; 50 µM IBUNA with 250 µM BME, 100 mM phosphate buffer pH 7.4, FIG. 2",absorbance increase
same,IL-1β secretion,"NF-κB; TUP-1 cells differentiated with PMA, 20 µM together with LPS 250ng/mL (1st signal), compared with Ibuprofen 20 µM, FIG. 10",unexpected superiority
same,IL-1β secretion,"inflammasome; TUP-1 cells differentiated with PMA, 20 µM together with ATP 5mM 45 minutes (2nd signal), compared with Ibuprofen 20 µM, FIG. 11",unexpected superiority
"O=C(O)c1cc(/C=C/[N+](=O)[O-])ccc1Nc1cccc(C(F)(F)F)c1 [FluFENA, (E)-5-(2-nitrovinyl)-2-((3-(trifluoromethyl)phenyl)amino)benzoic acid]",nitroalkene NSAID adduction with BME (absorbance),"[1]; 12.5 µM FluFENA with 125 µM BME, 100 mM phosphate buffer pH 7.4, FIG. 3",absorbance increase
same,IL-1β secretion,"NF-κB; THP-1 cells differentiated with PMA, 5 µM together with LPS 250ng/mL (1st signal), compared with FluFE 5 µM, FIG. 8",unexpected advantage
same,IL-1β secretion,"inflammasome; THP-1 cells differentiated with PMA, 5 µM together with ATP 5mM 45 minutes (2nd signal), compared with FluFE 5 µM, FIG. 9",unexpected advantage
"CC(=O)Nc1ccc(O)c(/C=C/[N+](=O)[O-])c1 [PARANA, (E)-N-(4-hydroxy-3-(2-nitrovinyl)phenyl)acetamide]",nitroalkene NSAID adduction with BME (absorbance),"[1]; 30 µM PARANA with 30 µM BME, 100mM phosphate buffer pH 7.4, FIG. 1",absorbance increase
